Patent US20050267051A1, “Antineoplastic and anti-HIV conjugates of steroid acid and nucleosides” (priority 2003, published 2005)
≈ marks a conversion by molar mass, not a printed value. Where two headings read alike, the source gives them in different places.

Assays:
[1] = tested on: H9 cells; assay: Growth inhibition (anti-growth) assay on H9 cells, trypan blue exclusion count; assay type: cell-based, human; conditions: for IC50: Homo sapiens, H9
Source text: Anti-growth activity on H-9 cells is summarized by IC50 data (drug concentration measured by […]g/ml needed to inhibit 50% of the cell growth), derived from dose-response curves.
(§1) Cell growth inhibitory activity against human lymphoblasts (H9 cells) for compounds (4), (5) and (6) is depicted in FIG. 1. […] Conjugate (4) was further tested against ddC resistant H9 cells (H9/ddC cells that have reduced thymidine and deoxycytidine kinase activities); HL60, HL60/araC (human promyclocytic leukemic cell lines, parental and araC resistant), H29, H29/FU (human colon adenocarcinomas, parental and FU resistant), MCF7 (human breast carcinoma) and BL5 (Burkitt lymphoma cell line). At 10 μg/ml, it produced 85-100% growth inhibition in all of these human tumor cell lines.
(§2) Growth inhibition assays were performed in triplicate by seeding 5×10^4 Cells/ml in 24-well plates (Costar). Test compounds were added, and the trypan blue-excluding cells were counted after 72 hrs of incubation at 37° C. IC50 values were calculated from growth inhibition curves as described in Agarwal, R. P., and Mian, A. Biochem. Pharmacol. 1991, 42, 905 and Agarwal, Ram P., Han, Tieran, Fernandez, Manilyn. Biochemical and Biophysical Research com in un ica lions. 1999, 262, 657.

[2] = tested on: HIV-1; assay: Anti-HIV assay with T4 lymphocytes (CEM-SS cell line), XTT, protection against HIV cytopathic effects; assay type: cell-based; conditions: for Anti-HIV activity (in words): in vitro anti-HIV bioassays; for EC50: read-out: EC50 (50% effective concentration against HIV cytopathic effects)
Source text: (§3) The ester conjugates were subjected to standard in vitro anti-HIV bioassays [see: with T4 lymphocytes (CEM-SS cell line) according to the standard assays described, for example in Bourinbaiar AS, Lee-Huang S. Contraception 1995; 51:319-22 and http://www.iaen.org/files.cgi/7014_Bourinbaiar.pdf. Drug efficacy (EC50) was obtained by adding HIV and AZT conjugate to the cell to measure protection of the drug against HIV-induced celldeath. The cytotoxicity (IC50) data was obtained from adding only the conjugate to the cell to measure cell death caused by the agent. The therapeutic index (TI) is the ratio IC50/EC50. […] These two active agents appear to have less cytotoxicity and weaker anti-HIV potency than AZT. […] This intriguing profile of conjugate (4) prompted further evaluations of its growth inhibition in comparison to (5) and (6).
(§4) The anti-HIV assay was carried out with T4 lymphocytes (CEM-SS cell line) through the following standard procedure. Agent is dissolved in dimethyl sulfoxide and diluted 1:100 in cell culture medium before preparing serial half-log 10 dilutions. T4 lymphocytes are added and after a brief interval HIV-1 is added, resulting in a 1:200 final dilution of the compound. Uninfected cells with the compound serve as a toxicity control, and infected and uninfected cells without the compound serve basic controls. Cultures are incubated at 37° C. in a 5% carbon dioxide atmosphere for 6 days. The tetrazolium salt, XTT, is added to all wells, and the cultures are incubated to allow formazan color development. Individual wells are analyzed spectrophotometrically to quantitate formazan production, and in addition are viewed microscopically for detection of viable cells and confirmation of protective activity.
(§5) Drug-treated virus-infected cells are compared with drug-treated non-infected cells and with other appropriate controls (untreated infected and untreated non-infected cells, drug-containing wells without cells, etc.) on the same plate. Data are reviewed in comparison with other tests done at the same time and a determination concerning activity is made (Table 1).

[3] = tested on: T4 lymphocytes (CEM-SS cell line); assay: Cytotoxicity in uninfected CEM-SS cells (toxicity control of anti-HIV assay); assay type: cell-based
Source text: as §3, §4, §5

[4] = tested on: H9/ddC cells; assay: Growth inhibition assay, ddC resistant H9 cells; assay type: cell-based, human; conditions: 10 μg/ml
Source text: as §1, §2

[5] = tested on: HL60; assay: Growth inhibition assay, HL60; assay type: cell-based, human; conditions: 10 μg/ml; HL60 promyelocytic leukemic, parental
Source text: as §1, §2

[6] = tested on: HL60/araC; assay: Growth inhibition assay, HL60/araC; assay type: cell-based, human; conditions: 10 μg/ml, araC resistant
Source text: as §1, §2

[7] = tested on: H29/FU; assay: Growth inhibition assay, H29/FU; assay type: cell-based, human; conditions: 10 μg/ml, FU resistant
Source text: as §1, §2

[8] = tested on: MCF7; assay: Growth inhibition assay, MCF7; assay type: cell-based, human; conditions: 10 μg/ml; MCF7 breast carcinoma
Source text: as §1, §2

[9] = tested on: H9 cells; assay: Apoptosis assay, Annexin V-FITC and propidium iodide staining, flow cytometry; assay type: cell-based, human; conditions: 10 μg/ml, 48 hrs; FIG. 4
Protocol: In the experiments, fractions of cells in various stages of apoptotic death were assessed according to standard assays [see, e.g., http://www.blackwell-synergy.com/links/doi/10.1046/j.1365-2184.2003.00283.x/abs/; http://64.177.90.157/pfpc/Fluoride_Machalinski—2003.pdf and http://jpet.aspetjournals.org/cgi/content/full/310/1/126 by simultaneous Annexin V and propidium iodide staining using flow cytometry.
Apoptosis experiments were carried out by treating H9 Cells […] with compound 4 (10 μg/ml), AZT (10 μg/ml) or cholenic acid (10 μg/ml) for 48 hrs. Cells were collected by centrifugation, washed with growth medium, and stained with Annexin V-FITC and propidium iodide (apoptosis dilution kit; Sigma), according to the manufacturer's protocol, and the fluorescence was analyzed via flow cytometry.

[10] = Cytotoxicity in uninfected CEM-SS cells (toxicity control of anti-HIV assay); assay type: cell-based; conditions: human, uninfected CEM-SS cells (T4 lymphocytes); CEM-SS cell line, uninfected; average of two repeat experiments; read-out: IC50 (50% inhibitory concentration for cell growth), cytotoxicity
Source text: as §3, §4, §5

[11] = H-9 cells, derived from dose-response curves, read-out: IC50 (drug concentration needed to inhibit 50% of the cell growth), anti-growth activity on H-9 cells
[12] = FIG. 1, 72 hrs incubation, read-out: IC50, cell growth inhibitory activity against human lymphoblasts (H9 cells)

## 3′-Azido-3′-deoxythymidine-5′-[3β-acetyloxy-22,23-bisnor-5-cholenate] [compound 4]
[1]; 5 μg/ml, 24 hrs exposure, FIG. 3
  cytotoxicity after 24 hrs drug exposure: Substantially more cytotoxicity
[1]; 5 μg/ml, 72 hrs exposure, FIG. 3
  cytotoxicity after 72 hrs drug exposure: only gave a plateau
[1]; 1 or 5 μg/ml, 4 hrs exposure, FIG. 3
  cell growth inhibition after 4 hrs drug exposure: did not produce any inhibition
[1]; 1 or 5 μg/ml, 8 hrs incubation, FIG. 3
  cell growth inhibition after 8 hrs drug exposure: 20-25%
[1]; FIG. 1, 72 hrs incubation
  IC50, cell growth inhibitory activity against human lymphoblasts (H9 cells): ~2.5 µg/mL
[1]; FIG. 2, 5 μg/ml for (4)
  Inhibition of growth of H9 cells (in words): prevented growth of H9 cells almost completely
[2]; CEM-SS cell line, average of two repeat experiments
  EC50 (50% effective concentration against HIV cytopathic effects): inactive
[2]
  Anti-HIV activity (in words): no anti-HIV activity
[3]; CEM-SS cell line, uninfected, average of two repeat experiments, read-out: IC50 (50% inhibitory concentration for cell growth), cytotoxicity
  IC50: 4700 nM
[3]; CEM-SS cells, conjugate only
  Cytotoxicity (in words): high cytotoxicity
[4]
  growth inhibition: 85-100%
[5]
  growth inhibition: 85-100%
[6]
  growth inhibition: 85-100%
[7]
  growth inhibition: 85-100%
[8]
  growth inhibition: 85-100%
[9]
  cells induced to apoptosis: ~90%

## Cc1cn(C2C[C@H](N=[N+]=[N-])C(COC(=O)CCC(C)C3CCC4C5CCC6CCCCC6(C)C5CCC34C)O2)c(=O)[nH]c1=O (stereo partly shown) [A, 5-Cholanic acid, 5′-(3′-azido-3′-deoxythymidinyl) ester]
[1]; [11]
  IC50: 30 µg/mL (≈ 49.2 µM)

## Cc1cn(C2C[C@H](N=[N+]=[N-])C(COC(=O)CCC(C)C3CCC4C5C(=O)CC6CC(=O)CCC6(C)C5CC(=O)C34C)O2)c(=O)[nH]c1=O (stereo partly drawn) [B, 5β-Cholanic acid-3,7,12-trione, 5′-(3′-azido-3′-deoxythymidinyl) ester]
[1]; [11]
  IC50: 30 µg/mL (≈ 46 µM)

## CC(=O)O[C@@H]1CCC2(C)C(CCC3C2CCC2(C)C(C(C)CCC(=O)OCC4OC(n5cc(C)c(=O)[nH]c5=O)C[C@@H]4N=[N+]=[N-])CCC32)C1 (stereo partly drawn) [C, 3α-Acetyloxy-5[…]-Cholanic acid, 5′-(3′-azido-3′-deoxythymidinyl) ester]
[1]; [11]
  IC50: 4 µg/mL (≈ 5.99 µM)

## CC(=O)O[C@H]1CCC2(C)C(=CCC3C2CCC2(C)C(C(C)C(=O)OCC4C=CC(n5cc(C)c(=O)[nH]c5=O)O4)CCC32)C1 (stereo partly drawn) [D, 3β-Acetyloxy-23,24-bisnor-5-cholenic acid, 5′-(3′-deoxy-2′,3′-didehydrothymidinyl) ester]
[1]; [11]
  IC50: 4 µg/mL (≈ 6.73 µM)

## CC(=O)O[C@H]1CCC2(C)C(=CCC3C2CCC2(C)C(C(C)C(=O)OCC4CCC(n5cc(C)c(=O)[nH]c5=O)O4)CCC32)C1 (stereo partly drawn) [E, 3β-Acetyloxy-23,24-bisnor-5-cholenic acid, 5′-(3′-deoxythymidinyl) ester]
[1]; [11]
  IC50: 3 µg/mL (≈ 5.03 µM)

## COC(OC)C(=O)[C@H]1[C@H](C(=O)OC[C@H]2O[C@@H](n3cc(C)c(=O)[nH]c3=O)C[C@@H]2N=[N+]=[N-])C[C@H]2[C@@H]3CCC4=CC(=O)C=C[C@]4(C)[C@H]3[C@@H](O)C[C@@]21C [compound 5, 3′-Azido-3′-deoxythymidine-5′-[21,21-dimethoxy-3,20-dioxo-11β-hydroxy-1,4-pregnadiene-16α-carboxylate]]
[1]; [12]
  IC50: ~12 µg/mL (≈ 17.6 µM)
[2]; Human immunodeficiency virus 1, CEM-SS
  EC50: 35 nM
[2]
  Anti-HIV activity (in words): active

## Cc1cn(C2C[C@H](N=[N+]=[N-])C(COC(=O)[C@@H]3OC(C)(C)O[C@@]34CCC3C5CCC6=CC(=O)C=CC6(C)C5C(O)CC34C)O2)c(=O)[nH]c1=O (stereo partly drawn) [compound 6, 3′-Azido-3′-deoxythymidine-5′-[11β-hydroxy-17,20α-isopropylidenedioxy-3-oxo-1,4-pregnadiene-21-oate]]
[1]; [12]
  IC50: ~10 µg/mL (≈ 15 µM)
[2]; Human immunodeficiency virus 1, CEM-SS cell line, average of two repeat experiments
  EC50: 65 nM
[2]
  Anti-HIV activity (in words): active
[10]
  IC50 at 6 days: 12000 nM
